According to ChEMBL document CHEMBL1144741, “Review of cytotoxic cephalostatins and ritterazines: isolation and synthesis” (2008):

System: P388
Assay: Antitumor activity against mouse P388 cells
Format: functional
Settings: read-out: ED50 (the source's name)

Row | SMILES | EC50 [nM]
1 | C[C@@H]1[C@]2(O[C@H]3C=C4[C@@H]5CC[C@H]6Cc7nc8c(nc7C[C@]6(C)[C@H]5C[C@@H](O)[C@]4(C)[C@]31O)C[C@@H]1CC[C@H]3C4=C[C@@H]5O[C@]6(O[C@](C)(CO)C[C@H]6O)[C@@H](C)[C@]5(O)[C@@]4(C)[C@H](O)C[C@@H]3[C@@]1(C)C8)O[C@](C)(CO)C[C@H]2O [CEPHALOSTATIN 12] | 76.2
2 | C[C@@H]1[C@H]2CC=C3[C@@H]4CC[C@H]5Cc6nc7c(nc6C[C@]5(C)[C@@]4(O)CC(=O)[C@@]32CO[C@]12OC(C)(C)C[C@H]2O)C[C@@H]1CC[C@H]2C3=C[C@@H]4O[C@@]5(CC[C@](C)(O)CO5)[C@@H](C)[C@]4(O)[C@@]3(C)[C@H](O)C[C@@H]2[C@@]1(C)C7 [CEPHALOSTATIN 16] | < 1.1
3 | C[C@H]1[C@H]2C[C@@H](O)c3c4c(cc(c32)OC12OC(C)(C)C[C@H]2O)[C@@]1(C)Cc2nc3c(nc2C[C@@H]1CC4)C[C@@]1(C)[C@@H](CC[C@H]2C4=C[C@@H]5O[C@@]6(C[C@]5(O)[C@@]4(C)[C@H](O)C[C@@H]21)O[C@](C)(CO)C[C@H]6O)C3 (some centres not stated) [CEPHALOSTATIN 6] | 2.3
4 | C[C@H]1[C@H]2[C@H](C[C@@H]3[C@@H]4CC[C@H]5Cc6nc7c(nc6C[C@]5(C)[C@@H]4C[C@@H](O)[C@]23C)C[C@@H]2CC[C@H]3[C@H]4C[C@@H]5O[C@@]6(CCC(C)(C)O6)[C@@H](C)[C@@H]5[C@@]4(C)[C@H](O)C[C@@H]3[C@@]2(C)C7)O[C@@]12CCC(C)(C)O2 [RITTERAZINE R] | 2460
5 | C[C@H]1[C@H]2[C@H](C[C@@H]3[C@@H]4CC[C@H]5Cc6nc7c(nc6C[C@]5(C)[C@H]4C[C@@H](O)[C@]23C)C[C@@H]2CC[C@@H]3[C@@H](CC(=O)[C@]34C[C@@H]3O[C@@]5(CCC(C)(C)O5)[C@@H](C)[C@@H]3[C@]4(C)O)[C@@]2(C)C7)O[C@@]12CCC(C)(C)O2 [RITTERAZINE P] | 819
6 | CO[C@H]1c2nc3c(nc2C[C@@H]2CC[C@H]4C5=CC[C@@H]6[C@H](C)[C@@]7(OC[C@]56C(=O)C[C@@H]4[C@]21C)OC(C)(C)C[C@H]7O)C[C@@]1(C)[C@@H](CC[C@H]2C4=C[C@@H]5O[C@]6(O[C@](C)(CO)C[C@H]6O)[C@@H](C)[C@]5(O)[C@@]4(C)[C@H](O)C[C@@H]21)C3 [CEPHALOSTATIN 19] | 7.9
7 | C[C@@H]1[C@@]2(CC[C@](C)(O)CO2)O[C@H]2C=C3[C@@H]4[C@@H](O)C[C@H]5Cc6nc7c(nc6C[C@]5(C)[C@H]4C[C@@H](O)[C@]3(C)[C@]21O)C[C@@H]1CC[C@H]2C3=C[C@@H]4O[C@]5(CC[C@@](C)(O)CO5)[C@@H](C)[C@]4(O)[C@@]3(C)[C@H](O)C[C@@H]2[C@@]1(C)C7 [RITTERAZINE J] | 14
8 | C[C@@H]1[C@H]2C[C@@H]3O[C@@]34[C@]3(O)CC[C@H]5Cc6nc7c(nc6C[C@]5(C)C3=CC(=O)[C@]24CO[C@]12OC(C)(C)C[C@H]2O)C[C@@H]1CC[C@H]2C3=C[C@@H]4O[C@]5(O[C@](C)(CO)C[C@H]5O)[C@@H](C)[C@]4(O)[C@@]3(C)[C@H](O)C[C@@H]2[C@@]1(C)C7 [CEPHALOSTATIN 14] | 4.4
9 | C[C@@H]1[C@@]2(CC[C@](C)(O)CO2)O[C@H]2C=C3[C@@H]4[C@@H](O)C[C@H]5Cc6nc7c(nc6C[C@]5(C)[C@H]4C[C@@H](O)[C@]3(C)[C@]21O)C[C@@H]1CC[C@H]2[C@H]3C[C@@H]4O[C@@]5(CCC(C)(C)O5)C[C@@H]4[C@@]3(C)C(=O)C[C@@H]2[C@@]1(C)C7 [RITTERAZINE H] | 17.8
10 | C[C@@H]1[C@@]2(CC[C@](C)(O)CO2)O[C@H]2C=C3[C@@H]4[C@@H](O)C[C@H]5Cc6nc7c(nc6C[C@]5(C)[C@H]4C[C@@H](O)[C@]3(C)[C@]21O)C[C@@H]1CC[C@H]2[C@H]3C[C@@H]4O[C@]5(CCC(C)(C)O5)C[C@@H]4[C@@]3(C)[C@H](O)C[C@@H]2[C@@]1(C)C7 [RITTERAZINE F] | 0.81
11 | C[C@@H]1[C@H]2CC=C3[C@H]4CC[C@H]5Cc6nc7c(nc6C[C@]5(C)[C@@]4(O)CC(=O)[C@@]32CO[C@]12OC(C)(C)C[C@H]2O)C[C@@H]1CC[C@H]2C3=C[C@@H]4O[C@]5(O[C@](C)(CO)C[C@H]5O)[C@@H](C)[C@]4(O)[C@@]3(C)[C@H](O)C[C@@H]2[C@@]1(C)C7 [CEPHALOSTATIN 17] | 4.4

Next, values leading:

Row | EC50 [nM] | SMILES
12 | 539 | C[C@H]1[C@H]2[C@H](C[C@@H]3[C@@H]4CC[C@H]5Cc6nc7c(nc6C[C@]5(C)[C@@H]4C[C@@H](O)[C@]23C)C[C@@H]2CC[C@H]3[C@H]4C[C@@H]5O[C@@]6(CCC(C)(C)O6)[C@@H](C)[C@@H]5[C@@]4(C)[C@H](O)C[C@@H]3[C@@]2(C)C7)O[C@]12CCC(C)(C)O2 [RITTERAZINE S]
13 | 2340 | C[C@H]1[C@H]2[C@H](C[C@]3(C(=O)C[C@H]4[C@H]3CC[C@H]3Cc5nc6c(nc5C[C@@]34C)C[C@@H]3CC[C@@H]4[C@@H](CC(=O)[C@]5(C)[C@@H]7[C@H](C[C@]45O)O[C@]4(CC[C@](C)(O)CO4)[C@H]7C)[C@@]3(C)C6)[C@@]2(C)O)O[C@@]12CCC(C)(C)O2 [RITTERAZINE U]
14 | 522 | C[C@H]1[C@H]2[C@H](C=C3[C@@H]4CC[C@H]5Cc6nc7c(nc6C[C@]5(C)[C@@H]4C[C@@H](O)[C@@]32C)C[C@@H]2CC[C@@H]3[C@H](CC(=O)[C@]34C[C@@H]3O[C@@]5(CCC(C)(C)O5)[C@@H](C)[C@@H]3[C@]4(C)O)[C@@]2(C)C7)O[C@]12CC[C@](C)(O)CO2 [RITTERAZINE T]
15 | 3400 | C[C@H]1[C@H]2[C@H](C=C3[C@@H]4CC[C@H]5Cc6nc7c(nc6C[C@]5(C)[C@@H]4C[C@@H](O)[C@@]32C)C[C@@H]2CC[C@@H]3[C@H](CC(=O)[C@]34C[C@@H]3O[C@]5(CCC(C)(C)O5)[C@@H](C)[C@@H]3[C@]4(C)O)[C@@]2(C)C7)O[C@]12C[C@](C)(CO)CO2 [RITTERAZINE X]
16 | 4 | C[C@H]1[C@H]2[C@H](C=C3[C@@H]4CC[C@H]5Cc6nc7c(nc6C[C@]5(C)[C@@H]4C[C@@H](O)[C@@]32C)C[C@@H]2CC[C@H]3[C@H]4C[C@@H]5O[C@@]6(CCC(C)(C)O6)[C@@H](C)[C@@H]5[C@@]4(C)[C@H](O)C[C@@H]3[C@@]2(C)C7)O[C@]12CC[C@](C)(O)CO2 [RITTERAZINE Y]
17 | 3630 | C[C@H]1[C@H]2[C@H](C=C3[C@@H]4CC[C@H]5Cc6nc7c(nc6C[C@]5(C)[C@@H]4C[C@@H](O)[C@@]32C)C[C@@H]2CC[C@@H]3[C@H](CC(=O)[C@]34C[C@@H]3O[C@@]5(CCC(C)(C)O5)[C@@H](C)[C@@H]3[C@]4(C)O)[C@@]2(C)C7)O[C@]12C[C@](C)(CO)CO2 [RITTERAZINE W]
